Experimental findings from patent US20260242340A1, “COMPOUNDS AND METHODS FOR TREATING PROTEIN AGGREGATION DISEASES” (ACELOT, INC., priority 2023, published 2026) are described below.

The target of test [1] is T1, TDP-43 cytosolic aggregates (TDP-43-tGFP-U2OS cell line) (Homo sapiens, UniProt Q13148).
T1 construct: expressed in transfected cells; host or cells: U2OS (recombinant, IPTG-inducible TDP-43 expression)
Briefly: TDP-43 cytoplasmic aggregation assay. Type of test: cell-based. As to conditions: 100 μM compound; TDP-43-tGFP-U2OS cells; lower = more potent. As for the experimental part:
Recombinant TDP-43-tGFP-U2OS cell line was thawed (2×10^6 cells per T75) and was maintained in DMEM-F12 supplemented with 10% FBS at 37° C. in a humidified 5% CO2 atmosphere. Cells were plated in 96-well plates with a density of 10,000 cells (+/−2000 cells) per well. Cells were incubated with the test compounds and isopropyl β-D-1-thiogalactopyranoside (IPTG) 1 mM to induce TDP43 expression for 24 hours. The assays were carried out in triplicate. Cells were treated with 125-250 μM of sodium arsenite for 120 min and TDP-43 punctae formation was quantified in both cell cytoplasm and cell nucleus, in living cells. The nuclei were stained using Hoechst (0.5 μg/ml) and the fluorescence was measured using a Cell Insight High-Content Bioimager from Thermo Fisher. To detect the Hoechst, the filters used were 380/10 and 460/10 nm for excitation and emission, respectively, and to detect the TDP-43 punctae, the filters were 488/20 and 520/20 nm, respectively. The images were obtained with an objective of 20×. Cell quantification was performed delimitating the region of interest of the nuclei and after quantification the average of each triplicate was performed. For granule quantification the spot detector application from Cell Software delimitated 2 regions of interest, the nuclei and cytosol. This software quantified the average number of granules per nuclei and the average number of granules per cytosol in each well.

For another test, the target named is T2, Aβ 1-42 (Homo sapiens, UniProt P05067).
T2 construct: The monomeric form of Aβ 1-42 (rPeptide, A1170-025) film; purchased rPeptide A1170-025
The experiment in a line: Aβ42 thioflavin T assay. The conditions noted are these: 50 μM compound, 5 μM Aβ 1-42, ThT RFU at 15 hours; 100% = Aβ + DMSO; read-out: Aβ42 % aggregation at 50 μM. Type of test: biochemical. As for the experimental part: The effect of compounds on fibril formation by Aβ 1-42 was screened using a thioflavin T (ThT) fluorescence assay in a 96-well plate format. The monomeric form of Aβ 1-42 (rPeptide, A1170-025) film was diluted with 10 mM NaOH to form a 1 mg/ml stock solution. This stock solution was then further diluted with cell culture grade water (Cytiva, SH30529.01) and 10×PBS (VWR, 97063-660) to a working concentration of 100 μM in 1×PBS on ice. Compounds were initially dissolved in 100% DMSO (MilliporeSigma, D2650) at room temperature to make a 10 mM stock and stored at −20° C. prior to the experiment. On the day of the experiment, the stock solution was diluted with 1×PBS to a concentration of 500 μM, containing 5% DMSO. The reaction mixture, containing 10 μM ThT […], 5 μM Aβ 1-42, and 1×PBS was prepared in 15 ml Falcon centrifuge tubes (Corning, 352070) and kept on ice during preparation. The reaction mixture was then dispensed into multiple wells of a 96-well half-area, low-binding polyethylene non-treated plate (Corning, 3880) with a clear bottom, at 90 μL per well. To each well, 10 μL of 500 μM compound stock was added, with three replicates per compound. To account for the presence of DMSO, 5% DMSO in 1×PBS was used as the vehicle control. The positive control consisted of 10 μM ThT, 5 μM Aβ 1-42, and 0.5% DMSO in 1×PBS, while the negative control consisted of 10 μM ThT and 0.5% DMSO in 1×PBS. The plates were sealed with polyester sealing tape (VWR, 89134-430) to prevent evaporation and then placed in a plate reader (Molecular Devices SpectraMax ID5) at 37° C. without agitation. ThT fluorescence was measured through the bottom of the plate using 440- and 480-nm excitation and emission filters for 15 hours at 0.5-hour intervals. Each well was scanned at 5 points with a 1.25 mm distance between points. The relative fluorescence unit (RFU) at 15 hours was used to rank the percent of aggregation for all tested compounds and controls.

Test [2] addresses TDP-43 peptide (amino acids 307-319) (Homo sapiens, UniProt Q13148). The experiment in a line: TDP-43 thioflavin T assay. Type of test: biochemical. The conditions noted are these: ThT RFU at 15 hours; 100% = TDP-43 + DMSO. As for the experimental part:
The effect of compounds on fibril formation by TDP-43 peptide (amino acids 307-319) was screened using a thioflavin T (ThT) fluorescence assay in a 96-well plate format. The monomeric form of TDP-43 307-319 was stored in HFIP at −20° C. in 32 μL vials and then thawed on ice. After thawing a stock aliquot on ice, 16 μL of HFIP and 432 μL 100 mM ammonium acetate was added. This mix was pipetted three times. Three such prepared aliquots were combined to create a master mix. 400 μM of ThT stock was prepared by dissolving 31.8 mg ThT in 10 mL Milli-Q water to make […] stock. The 10 mM ThT stock was then diluted to 400 μM with Milli-Q water and stored at −20° C. until use. 20 μL aliquots of compounds were used as initial starting material. 98 μL of master mix was then added to each well of 96-well plate, and then 2 μL of compounds was added to each well testing a compound. The plate was spun at 4700×rpm to remove bubbles at 4° C., and then the plate measurements were collected. ThT fluorescence was measured through the bottom of the plate using 440- and 480-nm excitation and emission filters for 15 hours at 0.5-hour intervals. Each well was scanned at 5 points with a 1.25 mm distance between points. The relative fluorescence unit (RFU) at 15 hours was used to rank the percent of aggregation for all tested compounds.

Another test concerns the target T3, alpha-synuclein (Homo sapiens, UniProt P37840).
T3 construct: purchased Proteos RP-003
The experiment in a line: Alpha-synuclein thioflavin T assay. Type of test: biochemical. As to conditions: 250 μM compound on pre-formed aggregates of 50 μM alpha-synuclein, 24 hours; 100% = alpha synuclein + DMSO. As to the method: Recombinant alpha-synuclein monomeric protein was procured from Proteos (catalog no. RP-003, 10 mg/ml or 700 μM concentration). Prior to aggregation, the protein was centrifuged at 10,000 rpm for 5 minutes to remove any pre-existing aggregates. The stock solution was then diluted to 50 μM concentration in filtered 1×PBS and allowed to aggregate with continuous shaking at 1000 rpm on a thermomixer for 96 hours at 37° C. After 96 hours, the ThT fluorescence was checked for the sample to confirm aggregate formation using ThT, a well-known amyloid marker dye. The ThT active aggregates were then used for high-throughput small molecule inhibitor screening. For screening small molecule disaggregators, 10 mM DMSO stock solutions of small molecules were diluted to 250 μM in the reaction mix containing 20 μM ThT and aggregates formed by 50 μM alpha-synuclein. As a positive/vehicle control, 100% DMSO stock was diluted to 2.5% to match the DMSO in the small molecule conditions. ThT fluorescence assay was performed for 24 hours with 3 replicates per sample in a 384 well plate (Corning low volume black/clear flat bottom) on a microplate reader (Molecular Devices SpectraMax iD5 or BioTek Agilent Synergy Neo2) using excitation wavelength of 440 nm and emission wavelength of 490 nm. The temperature was maintained at 37° C. and the plate was continuously shaken throughout the measurement. All data were plotted and analyzed in GraphPad Prism.

T1 sequence (Q13148 whole entry): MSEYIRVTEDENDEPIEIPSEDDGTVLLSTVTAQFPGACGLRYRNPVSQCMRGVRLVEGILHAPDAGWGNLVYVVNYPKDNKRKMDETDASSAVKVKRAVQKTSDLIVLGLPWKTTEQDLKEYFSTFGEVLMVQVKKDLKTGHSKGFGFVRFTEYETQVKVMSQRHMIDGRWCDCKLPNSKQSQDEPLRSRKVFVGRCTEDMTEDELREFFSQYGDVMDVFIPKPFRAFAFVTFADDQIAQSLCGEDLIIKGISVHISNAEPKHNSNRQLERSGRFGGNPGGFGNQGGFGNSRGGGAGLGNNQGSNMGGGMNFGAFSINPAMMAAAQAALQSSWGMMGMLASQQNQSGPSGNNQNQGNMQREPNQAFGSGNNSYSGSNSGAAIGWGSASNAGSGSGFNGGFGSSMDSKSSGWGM
T2 sequence (P05067 672-713 limits assumed): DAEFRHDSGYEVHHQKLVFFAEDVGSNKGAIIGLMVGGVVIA

`CC(=O)Nc1ccc2c(c1)CCN(CCc1ccccc1)C2` [Compound 3, N-(2-Phenethyl-1,2,3,4-tetrahydroisoquinolin-6-yl) acetamide]: the “% remaining TDP-43 cytosolic aggregates after 100 μM compound addition” value (“% remaining TDP-43 cytosolic aggregates” below) in test [1] is reported as over 99.9%. Moreover, the activity at 50 µM at Aβ 1-42 was over 99.9%. In test [2], the “% aggregation TDP-43 ThT at 50 μM TDP-43” value turned out to be 78.9%. Also, on alpha-synuclein, the “% alpha synuclein aggregation as measured on ThT” value (“% alpha synuclein aggregation” for short) was determined as 82.8%.
For `CNC(=O)c1ccc2c(c1)CCN(CCc1cccc(Cl)c1)C2` [Compound 4, 2-(3-chlorophenethyl)-N-methyl-1.2.3.4-tetrahydroisoquinoline-6-carboxamide], the “% remaining TDP-43 cytosolic aggregates” value in test [1] is listed as 59.1%. Also, the activity at 50 µM at Aβ 1-42 amounted to 74.6%. The “% alpha synuclein aggregation” value at alpha-synuclein is recorded as over 99.9%.
For the compound `Clc1cccc(CCN2CCc3ccccc3C2)c1` [Compound 5, 2-(3-chlorophenethyl)-1,2,3,4-tetrahydroisoquinoline], the “% remaining TDP-43 cytosolic aggregates” value in test [1] is 40.7%. The “% aggregation TDP-43 ThT at 50 μM TDP-43” value in test [2] is 64.6%. In addition, at alpha-synuclein, the “% alpha synuclein aggregation” value came out at 99%.
As for `CC(=O)Nc1ccc2c(c1)CN(CCc1cccc(Cl)c1)CC2` [Compound 6, N-(2-(3-Chlorophenethyl)-1,2,3,4-tetrahydroisoquinolin-7-yl) acetamide], the “% remaining TDP-43 cytosolic aggregates” value in test [1] worked out at 93.7%. Further, on Aβ 1-42, the activity at 50 µM is 59.7%. Moreover, the “% aggregation TDP-43 ThT at 50 μM TDP-43” value in test [2] came out at 73.1%. Also, the “% alpha synuclein aggregation” value at alpha-synuclein is reported as over 99.9%.
For the compound `CC(=O)Nc1ccc2c(c1)CN(CCc1ccc(O)c(Cl)c1)C2` [Compound 12, N-(2-(3-Chloro-4-hydroxyphenethyl)isoindolin-5-yl) acetamide], in test [2], the “% aggregation TDP-43 ThT at 50 μM TDP-43” value came out at 43.5%.
On the same count and under the same terms, as for `CC(=O)Nc1ccc2c(c1)CN(CCc1ccc(O)c(C)c1)C2` [Compound 13, N-(2-(4-Hydroxy-3-methylphenethyl)isoindolin-5-yl) acetamide], the figure is 48.8%; as for `CCc1cc(CCN2Cc3ccc(NC(C)=O)cc3C2)ccc1O` [Compound 14, N-(2-(3-Ethyl-4-hydroxyphenethyl)isoindolin-5-yl) acetamide], 48.6%.
For `CC(=O)N(C)c1ccc2c(c1)CN(CCc1ccc(O)c(Cl)c1)C2.Cl` [Compound 15, N-(2-(3-Chloro-4-hydroxyphenethyl)isoindolin-5-yl)-N-methylacetamide hydrochloride], the “% aggregation TDP-43 ThT at 50 μM TDP-43” value in test [2] amounted to 47.2%.
